Experimental data as given in ChEMBL document CHEMBL1147893, “Carbonic anhydrase inhibitors: the X-ray crystal structure of the adduct of N-hydroxysulfamide with isozyme II explains why this new zinc binding function is effective in the design of potent inhibitors” (Bioorg Med Chem Lett, 2007).

Legend:
[1] = target: Carbonic anhydrase 1 (Homo sapiens) (UniProt P00915)
Description: Inhibition of human recombinant carbonic anhydrase 1

[2] = target: Carbonic anhydrase 12 (Homo sapiens) (UniProt O43570)
Description: Inhibition of human recombinant carbonic anhydrase 12 catalytic domain by CO2 hydrase method

[3] = target: Carbonic anhydrase 2 (Homo sapiens) (UniProt P00918)
Description: Inhibition of human recombinant carbonic anhydrase 2

[4] = target: Carbonic anhydrase 9 (Homo sapiens) (UniProt Q16790)
Description: Inhibition of human recombinant carbonic anhydrase 9 catalytic domain by CO2 hydrase method

Carbonic anhydrase 1 (Homo sapiens), sequence (P00915 2-261 limits assumed): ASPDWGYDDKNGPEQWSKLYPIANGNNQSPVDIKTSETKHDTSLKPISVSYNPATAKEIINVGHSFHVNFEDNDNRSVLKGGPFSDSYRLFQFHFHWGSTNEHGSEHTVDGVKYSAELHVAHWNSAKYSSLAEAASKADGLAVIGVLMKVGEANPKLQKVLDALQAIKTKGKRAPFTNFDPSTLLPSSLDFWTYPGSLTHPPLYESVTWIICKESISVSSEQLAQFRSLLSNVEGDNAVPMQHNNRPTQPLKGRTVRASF
Carbonic anhydrase 12 (Homo sapiens), sequence (O43570 whole entry): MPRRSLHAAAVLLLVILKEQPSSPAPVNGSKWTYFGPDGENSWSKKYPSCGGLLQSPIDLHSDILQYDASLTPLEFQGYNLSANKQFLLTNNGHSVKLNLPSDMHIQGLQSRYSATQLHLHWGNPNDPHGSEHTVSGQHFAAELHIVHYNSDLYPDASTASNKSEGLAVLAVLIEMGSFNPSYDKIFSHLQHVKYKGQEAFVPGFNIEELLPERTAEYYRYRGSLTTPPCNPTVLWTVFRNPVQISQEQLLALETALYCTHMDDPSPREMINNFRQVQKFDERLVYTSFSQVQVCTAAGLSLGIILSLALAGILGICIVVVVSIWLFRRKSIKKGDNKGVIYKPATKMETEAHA

Row | Structure (SMILES) | Kinact [1] | Kinact [2] | Kinact [3] | Kinact [4]
1 | NS(=O)(=O)O | 0.21 10^5nM | 10.7 10^3nM | 0.39 10^6nM | 9.2 10^3nM
2 | O=S(=O)([O-])[O-].[Na+].[Na+] | 6.3 10^6nM | 7.7 10^5nM | > 300 10^6nM | > 300 10^6nM
